Columns and labels:
[1] = target: human serum albumin (HSA) (Homo sapiens, UniProt P02768); assay: DIDNTB reagent strip protein response, Example I, HSA; settings: for protein response: Example I, 6 mM of substituted alkane; for % change in response, HSA 30 mg/dL: additive 6 mM, vs control formula lacking additive, negative = loss of protein response
Text: (§1) The DIDNTB protein reagent was made from two saturations of Alhstrom 204 filter paper in which the first saturation was made with an aqueous ethanol mix containing tartaric acid as buffer and methyl red as background dye. The pH was adjusted to 2.1. The second saturation was with a toluene/tetrahydrofuran mix containing the DIDNTB indicator dye and Lutanol M40 (a polyvinylmethylether) as a color enhancer polymer.
(§2) The mix solutions were used to saturate the filter paper and the paper was dried at 105° C. for 7 minutes after each saturation. The resultant dry reagents were processed into reagent strips which were tested on a Clinitek-200+ reflectance spectrophotometer from Bayer Diagnostics after dipping into urine containing 0 or 30 mg/dL human serum albumin or 40 mg/dL of another urinary protein. The particulars of each dip solution are set out in Table 3.
Prior to the addition of HSA, the urine sample was filtered through an ultrafiltration membrane having a 10 KDa (kilodalton) molecular weight cut-off to remove naturally occurring proteins. The total protein in the urine sample was determined using an immunological HSA assay and the Coomassie Brilliant Blue (CBB) method described by Perini et al as cited above to screen over 175 clinical samples to provide specimens lacking albumin but containing other urine protein. […] These urines were pooled and diluted with negative urine to 40 mg/dL by the CBB method and less than 1.2 mg/dL by immunological HSA assay. The reagent response was measured on the […]-200+ instrument as the result of 1000×% Reflectance @ 610 nm/% reflectance @ 690 nm. The difference between negative and protein containing urines was taken as the protein response. The data generated by this experiment are set out in Table 1 in which the protein response of control formula lacking polymer or substituted alkane additive is compared to the formulas containing polymer or alkane to determine the % change in response. Negative numbers indicate greater loss of protein response.
The HSA response in the presence of these additives was compared to the response for other urinary proteins such as Tamm Horsefall glycoprotein, Bence-Jones protein, α-1-microglobin, hemoglobin and various low molecular weight protein fragments. The additives were used at a 0.1% (w/w) concentration to allow a measurable HSA response in all cases. The 0.1% concentration amounts to […] concentration of additive and is in excess of the 4.4 μM concentration of the proteins tested.

[2] = test system: Urinary proteins; assay: DIDNTB reagent strip protein response, Example I, other urinary proteins; type: binding; settings: additive 6 mM; vs control formula lacking additive; negative = loss of protein response
Text: as §1, §2
Prior to the addition of HSA, the urine sample was filtered through an ultrafiltration membrane having a 10 KDa (kilodalton) molecular weight cut-off to remove naturally occurring proteins. The total protein in the urine sample was determined using an immunological HSA assay and the Coomassie Brilliant Blue (CBB) method described by Perini et al as cited above to screen over 175 clinical samples to provide specimens lacking albumin but containing other urine protein. […] These urines were pooled and diluted with negative urine to 40 mg/dL by the CBB method and less than 1.2 mg/dL by immunological HSA assay. The reagent response was measured on the […]-200+ instrument as the result of 1000×% Reflectance @ 610 nm/% reflectance @ 690 nm. The difference between negative and protein containing urines was taken as the protein response. The data generated by this experiment are set out in Table 1 in which the protein response of control formula lacking polymer or substituted alkane additive is compared to the formulas containing polymer or alkane to determine the % change in response. Negative numbers indicate greater loss of protein response. […]

[3] = test system: albumin; settings: cited from earlier work
[4] = test system: albumin; settings: Coomassie Brilliant Blue; cited from earlier work

human serum albumin (HSA), sequence (P02768 25-609): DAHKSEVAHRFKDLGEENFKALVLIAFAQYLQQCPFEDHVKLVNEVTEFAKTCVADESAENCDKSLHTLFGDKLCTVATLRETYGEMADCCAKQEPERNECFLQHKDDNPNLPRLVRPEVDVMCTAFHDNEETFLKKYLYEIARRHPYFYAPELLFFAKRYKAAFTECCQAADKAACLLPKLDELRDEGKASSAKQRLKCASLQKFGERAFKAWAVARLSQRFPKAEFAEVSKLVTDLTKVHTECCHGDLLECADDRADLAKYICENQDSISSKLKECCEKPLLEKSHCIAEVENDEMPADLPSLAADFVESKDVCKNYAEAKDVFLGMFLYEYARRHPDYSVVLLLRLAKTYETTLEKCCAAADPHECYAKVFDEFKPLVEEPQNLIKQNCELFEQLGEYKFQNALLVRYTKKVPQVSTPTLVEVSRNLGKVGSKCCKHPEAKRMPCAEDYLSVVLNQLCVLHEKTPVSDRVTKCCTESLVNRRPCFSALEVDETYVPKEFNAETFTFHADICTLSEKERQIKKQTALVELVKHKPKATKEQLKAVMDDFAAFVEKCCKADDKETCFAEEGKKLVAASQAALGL

SMILES | protein response [1] | % change in response, HSA 30 mg/dL [1] [%] | % change in response, Urinary proteins 40 mg/dL [2] [%] | effect on the binding of phenol red to albumin [3] | specificity of the test for albumin [4]
CCCCCCCCCC(=O)O [Decanoic acid] | did not affect the protein response | 7 | 2 |  | 
CCCCCCCCCCO [Decanol] | did not affect the protein response | 3 | 8 |  | 
CCCCCCCCCCCCCCCC(=O)O [Hexadecanoic acid] |  |  | 1 |  | 
CCCCCCCCCCCCCCCC(=O)O [Palmitate, palmitic acid] |  |  |  | modest inhibitory effects | 
CCCCCCCCCCCCOS(=O)(=O)[O-].[Na+] [sodium dodecyl sulfate] |  |  |  |  | decreased the specificity
